Earlier results in US11033592B2, “Composition for the prevention and/or treatment of cardiovascular diseases” (priority 2016, dated 2021).

Test system: first occurrence of cardiovascular events
Conditions: CRESTOR 20 mg versus placebo, P<0.00001

CC(C)c1nc(N(C)S(C)(=O)=O)nc(-c2ccc(F)cc2)c1/C=C/[C@@H](O)C[C@@H](O)CC(=O)O [CRESTOR, rosuvastatin]
relative reduction in risk of a major cardiovascular event: 44%
